From patent publication US20130203647A1, “DELIVERY OF H[…]” (UNIVERSITY COLLEGE LONDON, priority 2010, published 2013)
Non-standard residues stand in square brackets, D forms with d. Residues, ends and D or L forms follow the SMILES beside them. ξ: configuration not given here. *: point of attachment. Palmitoyl = CCCCCCCCCCCCCCCC(=O)*; ξY = NC(Cc1ccc(O)cc1)C(=O)O; ξR = N=C(N)NCCCC(N)C(=O)O; ξF = NC(Cc1ccccc1)C(=O)O; ξL = CC(C)CC(N)C(=O)O

How the values were obtained:
[1] = Pharmacokinetics: brain levels after intravenous administration (UPLC-MS/MS); format: in vivo; conditions: ICR (CD-1) mice, dalargin dose of 30 mg kg-1, FIG. 1
Protocol: (§1) ICR (CD-1) male out bred mice (18-24 g, 4 weeks old, Harlan, Oxon, UK) were used for the pharmacokinetics evaluations while ICR (CD-1) male out bred mice (22-28 g, 4-5 weeks old) were used for the pharmacodynamics evaluations. The animals were housed in groups of 5 in plastic cages in controlled laboratory conditions with ambient temperature and humidity maintained at ˜22° C. and 60% respectively with a 12-hour light and dark cycle (lights on at 7:00 and off at 19:00). Food and water were available ad libitum and the animals acclimatised for 5-7 days prior to any experiments in the Animal House, School of Pharmacy, University of London (London, UK). Animals were only used once and were acclimatised in the testing environment for at least 1 hour prior to testing. […]
Groups (n=5) of animals were administered either: NaCl (0.9% w/v), Dalargin, Dalargin-GCPQA, pDal and pDal-GCPQA. […] At various time points, animals were killed and their brain, liver and plasma analysed. […]
Brain and Liver were immediately frozen in liquid Nitrogen after being taken from the mouse. […] The brain and liver weights were determined and 2 mL water per g of brain was added to each (equivalent to 2 g of solvent to 1 g of brain). […]

[2] = test system: mice; test: Tail flick warm water bioassay (anti-nociception); format: in vivo; conditions: ICR (CD-1) mice, intravenous, dalargin dose of 15 mg kg-1, water at 55° C., FIG. 2
Protocol: as §1, with “UK).” for “UK). Animals were only used once and were acclimatised in the testing environment for at least 1 hour prior to testing.”
Anti-nociception was assessed in mice using the tail flick warm water bioassay (17, 18). […] The response latency times, in centiseconds, recorded for each mouse to withdraw its tail by a “sharp flick” were recorded using a digital stopwatch capable of measuring 1/100th of a second. […]
Two separate withdrawal latency determinations (separated by ≧20 sec) were averaged. […] Mice not responding within 5 sec were excluded from further testing (Baseline cut-off=5 seconds) and the baseline latency was measured for all mice 2 hours prior testing. […] Briefly, percent antinociception was calculated as 100%×(test latency-baseline latency)/(10 seconds-baseline latency). […]

Row | Molecule | Detection in the brain (brain levels) [1] | Antinociceptive effect (% of Maximum Possible Effect, tail flick) [2]
1 | CCCCCCCCCCCCCCCC(=O)Oc1ccc(CC(N)C(=O)N[C@H](C)C(=O)NCC(=O)NC(Cc2ccccc2)C(=O)NC(CC(C)C)C(=O)NC(CCCNC(=N)N)C(=O)O)cc1 (stereo partly drawn) [pDal, Palmitoyl Dalargin] (H-[ξY](Palmitoyl)[dA]G[ξF][ξL][ξR]-OH) | detected in the brain | –
2 | Dalargin | not detected in the brain | unable to exert an antinociceptive effect
